Test results from patent US20160067298A1, “MUSCADINE GRAPE SKIN EXTRACT AS TREATMENT FOR BONE METASTATIC CANCER” (Clark Atlanta University, priority 2014, published 2016).
“Also recorded” adds a separate entry of the source. Peptide text beside a SMILES is read from it. * marks the point of attachment. Cbz = O=C(OCc1ccccc1)*

B1: OPG: Osteoprotegerin, decoy receptor that binds RANKL; used as control in osteoclastogenesis assay (protein, UniProt O00300 22-401, looked up)
Tumor necrosis factor …: ETFPPKYLHYDEETSHQLLCDKCPPGTYLKQHCTAKWKTVCAPCPDHYYTDSWHTSDECLYCSPVCKELQYVKQECNRTHNRVCECKEGRYLEIEFCLKHRSCPPGFGVVQAGTPERNTVCKRCPDGFFSNETSSKAPCRKHTNCSVFGLLLTQKGNATHDNICSGNSESTQKCGIDVTLCEEAFFRFAVPTKFTPNWLSVLVDNLPGTKVNAESVERIKRQHSSQEQTFQLLKLWKHQNKDQDIVKKIIQDIDLCENSVQRHIGHANLTFEQLRSLMESLPGKKVGAEDIEKTIKACKPSDQILKLLSLWRIKNGDQDTLKGLMHALKHSKTYHFPKTVTQSLKKTIRFLHSFTMYKLYQKLFLEMIGNQVQSVKISCL

Tests used:
mature CatL = assay: Western blot analysis, mature CatL; type: cell-based, human; details: 5 μM Z-FY-CHO, 72 h
Protocol: (§1) We also performed Western blot analysis of whole cell lysates obtained from untreated control and MSKE treatments. ARCaPE and MCF-7 cells over expressing Snail were treated with MSKE for 3 days, and probed for Snail, phosph-STAT-3 (p-STAT3), and […] Western blot analysis.
(§2) Cells were lysed in a modified RIPA buffer (50 mM Tris pH 8.0, 150 mM NaCl, 0.02% NaN3, 0.1% SDS, 1% NP-40, 0.5% sodium deoxycholate) containing 1.5× protease inhibitor cocktail, 1 mM phenylmethylsufonyl fluoride (PMSF), and 1 mM sodium orthovanadate. Whole cell lysates were freeze-thawed at −80° C./4° C. for three cycles, then centrifuged at 13,000 rpm for 30 min at 4° C. Supernatants were collected and quantified using a micro BCA assay (Promega, Madison, Wis.). 40 μg of cell lysate was resolved using 10% SDS PAGE, followed by transblotting onto nitrocellulose membrane (Bio-Rad Laboratories, Hercules, Calif.). Membranes were blocked with 3% milk (TBS-T containing 3% milk), then washed and incubated with primary antibody dilution buffer. […]
(§3) The expression levels of Snail, mature CatL, STAT-3 and Phospho-STAT-3 (pstat-3) were determined with western blot. […] Mature Cathepsin L activity was determined by gelatin zymography. Cathepsin L activity was quantified with densitometry of each band on the gel. […]

Snail = assay: Western blot analysis, Snail; type: cell-based, human; details: 5 μM Z-FY-CHO, 72 h
Protocol: as §1, §2, §3

[1] = system: MCF-7 and ARCaP-E cells over expressing Snail; assay: In vitro cell invasion assay (Matrigel); type: cell-based, human; details: 5 μM Z-FY-CHO for 72 hours; invasion 24 hours
Protocol: The invasive properties of the cell lines were measured using the BD BioCoat Matrigel Invasion guidelines. Briefly, Boyden chamber inserts (Thermo Fisher Scientific, Waltham, Mass., USA) were coated with 40 μl 1:4 Matrigel and allowed to solidify at 37° C. for 1 h. 5×10^4 cells were seeded in triplicate in 0.1% FBS, while the lower chamber contained 10% FBS. Cells were allowed to invade through the porous membrane coated with Matrigel at 37° C. for 24-72 h. Inserts were fixed, stained with 0.05% crystal violet. Cell counts were performed for the determination of relative cell invasion.
FIGS. 4C and 4D represent cell invasion of the same cell lines. 5×10^4 cells were plated on transwells coated with Matrigel. Cell invasion was allowed to take place for 24 hours. The number of cells that invaded through the transwell membranes were determined by counting at least 4 random microscopic fields. Compared to neo empty vector cells overexpressing Snail represent an increase in migration and invasion. MSKE and Z-FY-CHO decrease migratory and invasive cells. Asterisks represent p-value of statistical significance (n=3, ***p<0.001, **p<0.01, *p<0.05). Values were normalized to untreated controls and the mean±SEM of data were obtained from three independent replicate experiments with at least three wells per treatment group in each individual replicate. Statistical analysis was done with Student t test.

rat bone cells = details: by inhibiting collagen degradation; cited from earlier work
[2] = system: MCF-7 and ARCaP-E cells over expressing Snail; assay: In vitro cell migration assay (collagen I transwell); type: cell-based, human; details: 5 μM Z-FY-CHO for 72 hours; migration 5 hours
Protocol: We utilized Costar 24-well plates containing a polycarbonate filter insert with an 8-μm pore size, to coat with 4.46 μg/μl rat tail collagen I on the outside for 24 h at 4° C. 5×10^4 cells were plated in the upper chamber containing RPMI supplemented with 0.1% fetal bovine serum (FBS) while the lower chamber contained RPMI supplemented with 10% FBS. After 5 h, cells that migrated to the bottom of the insert were fixed, stained with 0.05% crystal violet, and counted to obtain the relative cell migration.
FIGS. 4A and 4B show MCF-7 and ARCaP-E cells over expressing Snail treated with 5 μg/mL, 20 μg/mL Muscadine Grape Skin Extract (MSKE) and 5 μM Z-FY-CHO for 72 hours. 5×10^4 cells were plated on transwell coated with Type-I collagen as described in the materials and methods section. The cells were allowed to migrate for 5 hours and then fixed and stained. The number of cells that migrated through the transwell membranes was determined by counting at least 4 random microscopic fields.

[3] = system: ARCaP-Snail/MCF-7 Snail co-cultured with spleen macrophages; assay: In vitro osteoclastogenesis assay (TRAP staining of mature osteoclasts); type: cell-based, human; details: vs untreated control
Protocol: We obtained MSKE from Dr Tamaro Hudson, our collaborator from Howard University and used it to perform osteoclastogenesis assay on prostate and breast cancer cell lines, including one in which Snail, a transcription factor, is overexpressed. 3×10^3 ARCaP-Neo/MCF-7 Neo or ARCaP-Snail/ MCF-7 Snail was co-cultured with 40×10^4 spleen macrophages in 48-well plates plus 1 ng/ml M-CSF plus or minus 5 μg/ml MSKE, 20 μg/ml MSKE, and 5 μM Z-FY-CHO CatL inhibitor.
The cells were fed every three days by replacing half the media with fresh media plus or minus MSKE or Z-FY-CHO. Macrophages alone were utilized as a negative control. After 7-14 days the cells were fixed with 3% formaldehyde and processed for TRAP staining according to manufacturer instructions, to visualize the formation of mature osteoclasts.
3×10^3 ARCaP-Neo/MCF-7 Neo or ARCaP-Snail/MCF-7 Snail was co-cultured with 40×10^4 spleen macrophages in 48-well plates plus 1 ng/ml M-CSF plus or minus 5 μg/mL MSKE, 20 μg/mL MSKE or […] Z-FY-CHO Cat L inhibitor. […]
3×10^3 or 1×10^3 prostate cancer cells overexpressing Snail (see FIG. 5) and breast cancer cells overexpressing Snail (FIG. 6) were co-cultured with 40×10^4 Macrophages for 14 days and treated with 50 ng/mL osteoprotogerin (control), 5 μM Z-FY-CHO, 5 μg/mL or 20 μg/ML MSKE. […] Osteoclasts were determined by having 3 or more nuclei (FIGS. 5 and 6 insets). […]

p-STAT-3 = assay: Western blot analysis, phospho-STAT-3; type: cell-based, human; details: 5 μM Z-FY-CHO, 72 h
Protocol: as §1, §2, §3

Cathepsin L (CatL) = target: T1, Cathepsin L (CatL) (Homo sapiens, UniProt P07711); assay: Cathepsin gelatin zymography of conditioned media; type: cell-based; details: 5 μM Z-FY-CHO, 72 h; vs untreated control
T1 construct: endogenous in cells; host or cells: conditioned media of ARCaP-E Snail, MCF-7 Snail and C4-2 cells
T1 sequence (P07711 114-333): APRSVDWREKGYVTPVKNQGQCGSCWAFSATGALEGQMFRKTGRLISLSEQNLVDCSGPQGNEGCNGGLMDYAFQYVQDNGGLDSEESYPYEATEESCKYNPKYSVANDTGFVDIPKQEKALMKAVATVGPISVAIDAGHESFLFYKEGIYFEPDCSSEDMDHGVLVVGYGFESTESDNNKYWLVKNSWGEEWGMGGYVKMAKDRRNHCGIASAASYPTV
Protocol: We also performed cathepsin zymography to detect cathepsin activity in untreated control and MSKE treatments. ARCaPE and MCF-7 cells over expressing Snail were treated with MSKE for 3 days using the condition media from the […]. With these steps we were able to detect higher CatL activity (enzymes hydrolyze the embedded substrate in situ, and proteolytic activity can be visualized as cleared bands) in cells overexpressing Snail as compared to Neo empty vector control cells.
We utilized the cathepsin zymography technique as previously described. Briefly, 1 mL of conditioned media (CM) containing 0.1 mM leupeptin was concentrated utilizing vivaspin tube (GE Health Care). The concentrated CM was diluted by adding […] of the sample to 45 μl of 1× RIPA buffer followed by determination of the protein concentration using BCA protein assay kit. […] Cathepsin activity was subsequently quantified using densitometry (NIH Image J). […]
as §3

Molecule | Cat L expression (mature CatL) | Snail expression (Snail) | cell invasion [1] | bone resorption (rat bone cells) | cell migration [2] | formation of osteoclasts ([3]; 5 μM Z-FY-CHO, prostate and breast cancer cells overexpressing Snail co-cultured with macrophages) | STAT-3 activation (p-STAT-3) (p-STAT-3) | amount of active CatL (CatL activity) (Cathepsin L (CatL)) | formation of osteoclasts ([3]; 50 ng/ml OPG)
O=C[C@H](Cc1ccc(O)cc1)NC(=O)[C@H](Cc1ccccc1)NC(=O)OCc1ccccc1 [Z-FY-CHO] (Cbz-Phe-Tyr-aldehyde) | decrease | decrease | abrogated; also recorded: decrease | inhibit | abrogated; also recorded: decrease | significantly decrease; also recorded: significantly abrogated | decrease | significantly decreased; also recorded: decrease | –
B1 | – | – | – | – | – | – | – | – | significantly decreased
